According to patent US5942527A, “Hydrazones, hydrazines, semicarbazones and thiosemicarbazones derived from pyridyl ketones as anticonvulsant drugs and excitatory amino acid antagonists” (K & K Biosciences, Inc., priority 1997, dated 1999):

Assays:
[1] = test system: maximal electroshock seizures; experiment: Maximal electroshock seizure (MES) test, rat, p.o.; format: in vivo, rat (Sprague-Dawley); settings: for ED50 / responders at 30 mg/kg: po; for responders at 30 mg/kg: several time points over a 4 hour period, read-out: Percent Protection at 30 mg/kg, in the MES test; for P.I., TD50/ED50, MES: Table 6
Excerpt: The hydrazones, hydrazines and semicarbazones derived from pyridyl ketones and the resulting orally effective anticonvulsant compositions of this invention are useful in the treatment of convulsive disorders. […] A series of hydrazones, hydrazines and semicarbazones derived from pyridyl ketones of this invention has been evaluated for anticonvulsant activity by the intraperitoneal (i.p.) and by the oral (p.o.) route using two standard seizure models in the mouse and in the rat, the maximal electroshock seizure (MES) test and the subcutaneous pentylenetetrazole (Metrazole) seizure threshold (scMet) test. […] In addition, the compounds are evaluated in a new model, the threshold tonic extension (TTE) model. […] Thus active compounds that may be missed in the MES and […] the mouse, i.p., can be detected in the TTE test. The Maximal Electroshock Seizure Test (MES): Maximal electroshock seizures are elicited with a 60 Hz alternating current of 50 mA intensity in mice and about 150 mA intensity in rats (5-7 times that necessary to elicit minimal electroshock seizures), delivered for 0.2 sec via corneal electrodes. A drop of 0.9% saline is instilled in the eye prior to application of the electrodes in order to […]. Abolition of the hind limb tonic extension component of the seizure is defined as protection and results are expressed as number of animals protected/number of animals tested. […] This species will be the subject of the complete anticonvulsant quantification test evaluation as described above, but after oral (gavage) administration of the candidate compound.

[2] = test system: subcutaneous pentylenetetrazole (Metrazole) seizure; experiment: Subcutaneous pentylenetetrazole (Metrazole) seizure threshold test (scMet), rat, p.o.; format: in vivo, rat (Sprague-Dawley); settings: po, rats, Table 6
Excerpt: (§1) The hydrazones, hydrazines and semicarbazones derived from pyridyl ketones and the resulting orally effective anticonvulsant compositions of this invention are useful in the treatment of convulsive disorders. […] A series of hydrazones, hydrazines and semicarbazones derived from pyridyl ketones of this invention has been evaluated for anticonvulsant activity by the intraperitoneal (i.p.) and by the oral (p.o.) route using two standard seizure models in the mouse and in the rat, the maximal electroshock seizure (MES) test and the subcutaneous pentylenetetrazole (Metrazole) seizure threshold (scMet) test. […] In addition, the compounds are evaluated in a new model, the threshold tonic extension (TTE) model. […] Thus active compounds that may be missed in the MES and scMet tests in the mouse, i.p., can be detected in the TTE test.
(§2) The Subcutaneous Pentylenetetrazol (Metrazole) Seizure Treshold Test (scMET): A 0.5 % solution of 85 mg/kg of pentylenetetrazole is administered subcutaneously in the posterior midline 30 minutes or 4 hours after drug administration to the animal. Failure to observe even a threshold seizure (a single episode of clonic spasms of at least 5 sec duration) is defined as protection and the results are expressed as number of animals protected/number of animals tested.
(§3) This species will be the subject of the complete anticonvulsant quantification test evaluation as described above, but after oral (gavage) administration of the candidate compound.

[3] = test system: maximal electroshock seizures; experiment: Maximal electroshock seizure (MES) test, mouse, i.p.; format: in vivo, mouse (male Carworth Farms #1); settings: for ASP Group Classification, MES Test: mouse, 30, 100 and 300 mg/kg; for ED50: Mus musculus, ip; for ED50 / P.I., TD50/ED50, MES: mice, Table 5
Excerpt: The hydrazones, hydrazines and semicarbazones derived from pyridyl ketones and the resulting orally effective anticonvulsant compositions of this invention are useful in the treatment of convulsive disorders. […] A series of hydrazones, hydrazines and semicarbazones derived from pyridyl ketones of this invention has been evaluated for anticonvulsant activity by the intraperitoneal (i.p.) and by the oral (p.o.) route using two standard seizure models in the mouse and in the rat, the maximal electroshock seizure (MES) test and the subcutaneous pentylenetetrazole (Metrazole) seizure threshold (scMet) test. […] In addition, the compounds are evaluated in a new model, the threshold tonic extension (TTE) model. […] Thus active compounds that may be missed in the MES and […] the mouse, i.p., can be detected in the TTE test. Based on the screening results, the compounds are placed in one of three categories. […] Class II compounds show anticonvulsant activity at doses greater than 100 mg/kg or show activity at 100 mg/kg which is not reinforced by similar activity at 300 mg/kg. […] The Class I compounds are those which are most promising as anticonvulsants. […] In mice. i.p.: All compounds are emulsified in 0.5% methylcellulose. The solvent has been tested for anticonvulsant and toxic effects and found to introduce no significant bias into the testing of anticonvulsant activity. The compounds are administered intraperitoneally in a volume of 0.01 ml/gm to male Carworth Farms #1 mice weighing about 20 gm. All compounds are tested at least at three dose levels (30, 100 and 300 mg/kg) at 30 minutes and 4 hours after their administration. The Maximal Electroshock Seizure Test (MES): Maximal electroshock seizures are elicited with a 60 Hz alternating current of 50 mA intensity in mice and about 150 mA intensity in rats (5-7 times that necessary to elicit minimal electroshock seizures), delivered for 0.2 sec via corneal electrodes. A drop of 0.9% saline is instilled in the eye prior to application of the electrodes in order to […]. Abolition of the hind limb tonic extension component of the seizure is defined as protection and results are expressed as number of animals protected/number of animals tested. Anticonvulsant Quantification in Mice, i.p.: The ED50 values are determined in the MES, scMet and rotorod ataxia test.

[4] = test system: TTE seizure; experiment: Threshold tonic extension (TTE) test, mouse, i.p.; format: in vivo
Excerpt: as §1
The Threshold Tonic Extension (TTE) Test: The TTE test (Piredda et al., 1985) is a clinically nonselective, electroconvulsive seizure model that identifies compounds that raise seizure threshold as well as those that prevent seizure spread. […] The test is similar to the MES screen but uses a lower level of electrical current. The lower current makes the TTE test more sensitive but less discriminate than the MES screen. This ability makes the model attractive because it allows us to identify compounds that may be missed by our standard identification screen.
Twenty mice are pretreated intraperitoneally with 100 mg/kg of the test substance. At several time intervals (1/4, 1/2, 1, 2, and 4 hours) post treatment with the test drug, four mice at each time point are challenged with 12.5 mA of electrical current for 0.2 seconds via corneal electrodes. This produces a TTE seizure in the animals (Woodbury and Davenport, 1952).
For each time interval results are expressed as a ratio of the number of animals protected over the number tested. […] The positives may represent compounds acting by novel mechanisms.

[5] = in vivo; parameters: species or system rat (Sprague-Dawley); settings: rat, po
Protocol: (§4) Neurotoxicity is determined by the rotorod ataxia test in mice and by the positional sense test and gait and stance test in the rat.
as §3
Neurological deficit in rats is examined by the positional sense test and gait and stance test. […] Inability to do so rapidly indicates a neurologic deficit. In the gait and stance test, a neurologic deficit is indicated by a circular or a zigzag gait, ataxia, abnormal spread of the legs, abnormal body posture, tremor, hyperactivity, lack of exploratory behavior, somnolence, stupor, or catalepsy.

[6] = in vivo; parameters: species or system mouse (male Carworth Farms #1); settings: mouse, ip
Protocol: as §4
Neurotoxicity is evaluated in mice by the rotorod ataxia test. The animal is placed on a wooden rod of 1 and 1/8" diameter rotating at 6 rpm. Normal mice can remain on a rod rotating at this speed indefinitely.
(§5) Anticonvulsant Quantification in Mice, i.p.: The ED50 values are determined in the MES, scMet and rotorod ataxia test.

[7] = test system: subcutaneous pentylenetetrazole (Metrazole) seizure; experiment: Subcutaneous pentylenetetrazole (Metrazole) seizure threshold test (scMet), mouse, i.p.; format: in vivo, mouse (male Carworth Farms #1); settings: ip, mice, Table 5
Excerpt: as §1
In mice. i.p.: All compounds are emulsified in 0.5% methylcellulose. The solvent has been tested for anticonvulsant and toxic effects and found to introduce no significant bias into the testing of anticonvulsant activity. The compounds are administered intraperitoneally in a volume of 0.01 ml/gm to male Carworth Farms #1 mice weighing about 20 gm. All compounds are tested at least at three dose levels (30, 100 and 300 mg/kg) at 30 minutes and 4 hours after their administration.
as §2, §5

[8] = Rattus norvegicus, rats, Table 6, read-out: ED50, MES
[9] = rat, Table 7, read-out: Anticonvulsant Efficacy (ED50, mg/kg) in the MES Test

## CC(=NNc1ccc(Cl)c(Cl)c1)c1ccncc1 [Compound 1, Methyl 4-pyridyl ketone 3,4-dichlorophenylhydrazone]
[1]; [8]
  ED50: 16.9 mg/kg
[1]; rat, 30 mg/kg
  responders at 30 mg/kg: 25 to 95%
[1]; [9]
  ED50: 16.9 mg/kg
[1]; rats
  P.I., TD50/ED50, MES: > 29.64
[2]
  ED50: > 250 mg/kg
[3]
  ASP Group Classification, MES Test: III (Those failing to demonstrate anticonvulsant activity at doses up to 300 mg/kg are considered inactive)
[4]; Mus musculus, ip, mice, Table 5
  ED50: 71 mg/kg
[4]; mouse, 100 mg/kg
  ASP Group Classification, TTE Test: I (They demonstrate anticonvulsant activity in either the MES test or the scMet test, or both at doses of 100 mg/kg or 30 mg/kg without signs of neurological deficit and thus have an estimated protective index of greater than 1)
  TTE Test (Percent Protection): 62%
[5]
  TD50: > 500 mg/kg

## CC(=NNc1cccc(Cl)c1)c1ccncc1 [Compound 3, Methyl 4-pyridyl ketone 3-chlorophenyl hydrazone]
[1]; [8]
  ED50: 36.6 mg/kg
[1]; rat, 30 mg/kg
  responders at 30 mg/kg: 50 to 100%
[1]; rats
  P.I., TD50/ED50, MES: > 13.65
[6]
  TD50: 441 mg/kg
[2]
  ED50: > 250 mg/kg
[3]
  ED50: 81.8 mg/kg
  P.I., TD50/ED50, MES: 5.39
  ASP Group Classification, MES Test: II (show anticonvulsant activity at doses greater than 100 mg/kg or show activity at 100 mg/kg which is not reinforced by similar activity at 300 mg/kg)
[7]
  ED50: > 500 mg/kg
[5]
  TD50: > 500 mg/kg

## CC(=NNc1ccc(Cl)c(Cl)c1)c1cccnc1 [Compound 4, Methyl 3-pyridyl ketone 3,4-dichlorophenylhydrazone]
[1]; rat, 30 mg/kg
  responders at 30 mg/kg: 25 to 100%
[6]
  TD50: > 500 mg/kg
[3]
  ED50: 69.8 mg/kg
  P.I., TD50/ED50, MES: > 7.17
  ASP Group Classification, MES Test: I (They demonstrate anticonvulsant activity in either the MES test or the scMet test, or both at doses of 100 mg/kg or 30 mg/kg without signs of neurological deficit and thus have an estimated protective index of greater than 1)
[7]
  ED50: > 500 mg/kg

## CC(=NNc1ccc(Cl)cc1)c1cccnc1 [Compound 5, Methyl 3-pyridyl ketone 4-chlorophenylhydrazone]
[1]; [8]
  ED50: 7.79 mg/kg
[1]; rat, 30 mg/kg
  responders at 30 mg/kg: 50 to 100%
[1]; [9]
  ED50: 7.8 mg/kg
[1]; rats
  P.I., TD50/ED50, MES: > 64.12
[2]
  ED50: > 250 mg/kg
[3]
  ASP Group Classification, MES Test: I (They demonstrate anticonvulsant activity in either the MES test or the scMet test, or both at doses of 100 mg/kg or 30 mg/kg without signs of neurological deficit and thus have an estimated protective index of greater than 1)
[5]
  TD50: > 500 mg/kg

## NC(=O)NN=C(c1ccccc1)c1ccncc1 [Compound 15, Phenyl 4-pyridyl ketone semicarbazone]
[1]; rat, 30 mg/kg
  responders at 30 mg/kg: 50 to 100%
[1]; rat, 30 mg/kg, Table 7
  protection at 30 mg/kg, MES Test: 50-100%
[6]
  TD50: 160 mg/kg
[3]
  ED50: 57.5 mg/kg
  P.I., TD50/ED50, MES: 2.79
  ASP Group Classification, MES Test: I (They demonstrate anticonvulsant activity in either the MES test or the scMet test, or both at doses of 100 mg/kg or 30 mg/kg without signs of neurological deficit and thus have an estimated protective index of greater than 1)
[7]
  ED50: > 300 mg/kg
